From patent US9474275B2, “Cyanoenamines and their use as fungicides” (priority 2010, dated 2016)
Marks after values point to notes of the source that are not given here.

System: Phytophthora infestans
Experiment: not given
Format: in vivo
Details: tomato plants, preventive spray, 500 ppm of active ingredient, evaluated 7 days after inoculation; 0% = untreated control, 100% = no disease

Structure (SMILES)	efficacy [%]
CC(NC(=C(C#N)C(=O)CC1CC1)c1cccnc1Cl)C1(Cl)CC1 (racemic) [Compound 27]	93
CCCC(=O)C(C#N)=C(NC(C)c1ncc(C)s1)c1cccnc1Cl (racemic) [Compound 107]	95
COCC(C)NC(=C(C#N)C(=O)CC1CC1)c1cn(C)nc1C(F)F (stereo not shown) [Compound 2]	100
CC(C)C(C)NC(=C(C#N)C(=O)CC1CC1)c1cn(C)nc1C(F)F (stereo not shown) [Compound 4]	95
CCC(=O)C(C#N)=C(NC(C)C(C)C)c1cccnc1Cl (stereo not shown) [Compound 5]	100
CC(C)C(C)NC(=C(C#N)C(=O)C1(F)CC1)c1cccnc1Cl (stereo not shown) [Compound 10]	95
CC(C)C(C)NC(=C(C#N)C(=O)CC1CC1)c1cccnc1Cl (stereo not shown) [Compound 11]	100
CCCCC(=O)C(C#N)=C(NC(C)C(C)C)c1cccnc1Cl (stereo not shown) [Compound 16]	95
COCC(=O)C(C#N)=C(NC(C)C1CC1)c1cn(C)nc1C(F)F (stereo not shown) [Compound 17]	100
CCCC(=O)C(C#N)=C(NC(C)C1CC1)c1cn(C)nc1C(F)F (stereo not shown) [Compound 18]	95
CCCC(=O)C(C#N)=C(NC(C)C(C)C)c1cccnc1Cl (stereo not shown) [Compound 20]	100
CCC(=O)C(C#N)=C(NC(C)C(C)C)c1cn(C)nc1C(F)F (stereo not shown) [Compound 23]	93
CC(C)C(C)NC(=C(C#N)C(=O)c1ccsn1)c1cccnc1Cl (stereo not shown) [Compound 25]	75
CCCC(=O)C(C#N)=C(NC(C)c1nccs1)c1cccnc1Cl (stereo not shown) [Compound 26]	100
CCCC(=O)C(C#N)=C(NC(C)COC)c1cn(C)nc1C(F)F (stereo not shown) [Compound 30]	100
CCCC(=O)C(C#N)=C(NC(C)C1(Cl)CC1)c1cccnc1Cl (stereo not shown) [Compound 33]	90
CC(C)C(C)NC(=C(C#N)C(=O)C1CCC1)c1cn(C)nc1C(F)F (stereo not shown) [Compound 34]	90
COCC(=O)C(C#N)=C(NC(C)C1(Cl)CC1)c1cccnc1Cl (stereo not shown) [Compound 36]	70
CC(C)CC(=O)C(C#N)=C(NC(C)C(C)C)c1cccnc1Cl (stereo not shown) [Compound 40]	75
CC(C)C(C)NC(=C(C#N)C(=O)C1CCC1)c1cccnc1Cl (stereo not shown) [Compound 44]	85
CCCCC(=O)C(C#N)=C(NC(C)C1(Cl)CC1)c1cccnc1Cl (stereo not shown) [Compound 47]	75
CCCC(=O)C(C#N)=C(NC(C)C(C)C)c1cn(C)nc1C(F)F (stereo not shown) [Compound 51]	95
CC(C)C(C)NC(=C(C#N)C(=O)C1CC1)c1cn(C)nc1C(F)F (stereo not shown) [Compound 52]	75
COCC(=O)C(C#N)=C(NC(C)C(C)C)c1cn(C)nc1C(F)F (stereo not shown) [Compound 56]	95

System: Plasmopara viticola
Experiment: Plasmopara test (grapevines) / preventive
Format: in vivo
Details: grapevine plants, preventive spray, 100 ppm of active ingredient, evaluated 6 days after inoculation; 0% = untreated control, 100% = no disease
Description: Solvent: 24.5 parts by weight of acetone • 24.5 parts by weight of dimethylacetamide
Emulsifier: 1 part by weight of alkylaryl polyglycol ether
To produce a suitable preparation of active compound, 1 part by weight of active compound is mixed with the stated amounts of solvent and emulsifier, and the concentrate is diluted with water to the desired concentration. To test for preventive activity, young plants are sprayed with the preparation of active compound at the stated rate of application. After the spray coating has dried on, the plants are inoculated with an aqueous spore suspension of Plasmopara viticola and then remain for 1 day in an incubation cabinet at approximately 20° C. and a relative atmospheric humidity of 100%. The plant is subsequently placed for 4 days in a greenhouse at approximately 21° C. and a relative atmospheric humidity of approximately 90%. The plants are then misted and placed for 1 day in an incubation cabinet. The test is evaluated 6 days after the inoculation. 0% means an efficacy which corresponds to that of the untreated control, while an efficacy of 100% means that no disease is observed.

Structure (SMILES)	efficacy [%]
CC(NC(=C(C#N)C(=O)CC1CC1)c1cccnc1Cl)C1(Cl)CC1 (racemic) [Compound 27]	95
CCCC(=O)C(C#N)=C(NC(C)c1ncc(C)s1)c1cccnc1Cl (racemic) [Compound 107]	100
COCC(C)NC(=C(C#N)C(=O)CC1CC1)c1cn(C)nc1C(F)F (stereo not shown) [Compound 2]	94
CC(C)C(C)NC(=C(C#N)C(=O)CC1CC1)c1cn(C)nc1C(F)F (stereo not shown) [Compound 4]	94
CCC(=O)C(C#N)=C(NC(C)C(C)C)c1cccnc1Cl (stereo not shown) [Compound 5]	93
CC(C)C(C)NC(=C(C#N)C(=O)CC1CC1)c1cccnc1Cl (stereo not shown) [Compound 11]	82
CCCC(=O)C(C#N)=C(NC(C)C1CC1)c1cn(C)nc1C(F)F (stereo not shown) [Compound 18]	91
CCCC(=O)C(C#N)=C(NC(C)C(C)C)c1cccnc1Cl (stereo not shown) [Compound 20]	87
CCCC(=O)C(C#N)=C(NC(C)COC)c1cn(C)nc1C(F)F (stereo not shown) [Compound 30]	94
CCCC(=O)C(C#N)=C(NC(C)C1(Cl)CC1)c1cccnc1Cl (stereo not shown) [Compound 33]	93
CCCC(=O)C(C#N)=C(NC(C)C(C)C)c1cn(C)nc1C(F)F (stereo not shown) [Compound 51]	100
COCC(=O)C(C#N)=C(NC(C)C(C)C)c1cn(C)nc1C(F)F (stereo not shown) [Compound 56]	78

System: not given
Experiment: not given
Details: pH 2.7

Structure (SMILES)	LogP
CC(NC(=C(C#N)C(=O)CC1CC1)c1cccnc1Cl)C1(Cl)CC1 (racemic) [Compound 27]	3.39^[a]
CCCC(=O)C(C#N)=C(NC(C)c1ncc(C)s1)c1cccnc1Cl (racemic) [Compound 107]	3.19^[a]
COCC(C)NC(=C(C#N)C(=O)CC1CC1)c1cn(C)nc1C(F)F (stereo not shown) [Compound 2]	2.54^[a]
CC(C)C(C)NC(=C(C#N)C(=O)CC1CC1)c1cn(C)nc1C(F)F (stereo not shown) [Compound 4]	3.27^[a]
CCC(=O)C(C#N)=C(NC(C)C(C)C)c1cccnc1Cl (stereo not shown) [Compound 5]	3.11^[a]
CC(C)C(C)NC(=C(C#N)C(=O)CC1CC1)c1cccnc1Cl (stereo not shown) [Compound 11]	3.55^[a]
CCCC(=O)C(C#N)=C(NC(C)C1CC1)c1cn(C)nc1C(F)F (stereo not shown) [Compound 18]	3.08^[a]
CCCC(=O)C(C#N)=C(NC(C)C(C)C)c1cccnc1Cl (stereo not shown) [Compound 20]	3.69^[a]
CCCC(=O)C(C#N)=C(NC(C)COC)c1cn(C)nc1C(F)F (stereo not shown) [Compound 30]	2.54^[a]
CCCC(=O)C(C#N)=C(NC(C)C1(Cl)CC1)c1cccnc1Cl (stereo not shown) [Compound 33]	3.44^[a]
CCCC(=O)C(C#N)=C(NC(C)C(C)C)c1cn(C)nc1C(F)F (stereo not shown) [Compound 51]	3.29^[a]
COCC(=O)C(C#N)=C(NC(C)C(C)C)c1cn(C)nc1C(F)F (stereo not shown) [Compound 56]	2.42^[a]

Same assay, conditions: pH 7.5

Structure (SMILES)	LogP
CCC(=O)C(C#N)=C(NC(C)C(C)C)c1cccnc1Cl (stereo not shown) [Compound 5]	3.09^[b]

System: not given
Experiment: not given
Details: method [a]: LC-MS at pH 2.7, 0.1% formic acid in water / acetonitrile, linear gradient 10% to 95% acetonitrile

Structure (SMILES)	LogP
CC(C)C(C)NC(=C(C#N)C(=O)C1(F)CC1)c1cccnc1Cl (stereo not shown) [Compound 10]	3.29^[a]
CCCCC(=O)C(C#N)=C(NC(C)C(C)C)c1cccnc1Cl (stereo not shown) [Compound 16]	4.06^[a]
COCC(=O)C(C#N)=C(NC(C)C1CC1)c1cn(C)nc1C(F)F (stereo not shown) [Compound 17]	2.15^[a]
CCC(=O)C(C#N)=C(NC(C)C(C)C)c1cn(C)nc1C(F)F (stereo not shown) [Compound 23]	2.92^[a]
CC(C)C(C)NC(=C(C#N)C(=O)c1ccsn1)c1cccnc1Cl (stereo not shown) [Compound 25]	2.98^[a]
CCCC(=O)C(C#N)=C(NC(C)c1nccs1)c1cccnc1Cl (stereo not shown) [Compound 26]	2.61^[a]
CC(C)C(C)NC(=C(C#N)C(=O)C1CCC1)c1cn(C)nc1C(F)F (stereo not shown) [Compound 34]	3.46^[a]
COCC(=O)C(C#N)=C(NC(C)C1(Cl)CC1)c1cccnc1Cl (stereo not shown) [Compound 36]	2.44^[a]
CC(C)CC(=O)C(C#N)=C(NC(C)C(C)C)c1cccnc1Cl (stereo not shown) [Compound 40]	3.90^[a]
CC(C)C(C)NC(=C(C#N)C(=O)C1CCC1)c1cccnc1Cl (stereo not shown) [Compound 44]	3.80^[a]
CCCCC(=O)C(C#N)=C(NC(C)C1(Cl)CC1)c1cccnc1Cl (stereo not shown) [Compound 47]	2.33^[a]
CC(C)C(C)NC(=C(C#N)C(=O)C1CC1)c1cn(C)nc1C(F)F (stereo not shown) [Compound 52]	3.11^[a]
